Measured values reported in article PMC6000956, “Immunomodulatory activities of pixatimod: emerging nonclinical and clinical data, and its potential utility in combination with PD-1 inhibitors” (Journal for Immunotherapy of Cancer, 2018).
Marks after values point to notes of the source that are not given here.

How the values were obtained:
beagle dogs = test: 1 month GLP toxicology study, weekly IV infusion; assay type: in vivo
Description: (§1) A 1 month toxicology study of pixatimod in beagle dogs was performed under OECD Good Laboratory Practice (GLP) to assess the toxicity and toxicokinetic profile of pixatimod with 5 intravenous, short term (approximately 1 h) infusions at three defined dose levels of 2.5, 7.5 and 20 mg/kg weekly over 29 days. Blood samples were collected for toxicokinetic investigation to provide information on the systemic exposure. Parameters monitored included mortality and morbidity, clinical signs, food consumption, body weight and body temperature, ophthalmoscopy and electrocardiographic measurements. Laboratory investigations were performed using haematology (ADVIA 120), coagulation (AMAX Density Plus Coagulometer), clinical chemistry (VITROS 950) and urinalysis (URYXXON 300). At the end of the treatment, all animals were euthanized and subjected to a complete necropsy with selected organs weighed and followed by a detailed histopathology evaluation. Bone marrow smears from the femur and sternum were prepared at necropsy, fixed and stained with May-Grünwald and Giemsa stain for analysis. Blood samples obtained during the Phase Ia monotherapy study (PG545102) were collected weekly and the parameters reported herein were analysed by local hospital laboratories.
In the 4T1.2 model, the percentage tumor growth inhibition was determined according to the following formula: 100 × (1-ΔT/ ΔC) where ΔC and ΔT were calculated by subtracting the mean tumor volume in each group on day 1 of treatment from the mean tumor volume on the day of analysis. Statistical analysis was performed using GraphPad Prism, v 6.0 (GraphPad, La Jolla, CA). An ANOVA analysis was performed followed by Dunnett’s post hoc test to compare the tumor growth in the treated groups to the vehicle control. In the dog toxicology study, the analysis was performed using non-parametric Kruskal-Wallis test. The frequency of clinical observations, and necropsy and histopathology findings, was calculated as applicable. For all statistical analyses, statistically significance differences between control and treatment groups was signified by *P < 0.05, **P < 0.01, ***P < 0.001, ****P < 0.0001 versus vehicle control.

[1] = Toxicokinetics in the 1 month IV toxicology study in beagle dogs; assay type: in vivo; conditions: dog, plasma
Description: as §1
(§2) Plasma samples were analysed using a LC-MS/MS method as previously described. Pharmacokinetic parameters in animal studies were determined by non-compartmental analyses (NCA) of the mean plasma pixatimod concentration vs time profiles for each dose using the linear trapezoidal method in WinNonlin 5.2.1. For comparison with previous animal studies, exposure data (AUC0-last) in clinical samples were derived using individual subject NCA type exposure parameters from the original plasma concentration data using R (64-bit) Version 3.0.1.

4T1.2 cells = test: Syngeneic 4T1.2 breast cancer model, tumor growth; assay type: in vivo, Balb/c mice; conditions: day 18
Description: Female Balb/c mice (6–8 weeks) were obtained from the Walter & Eliza Hall Institute (Melbourne, Australia). Animal experiments were performed in accordance with institutional guidelines of the Peter MacCallum Cancer Centre. To determine the utility of pixatimod in combination with a PD-1 checkpoint inhibitor antibody (clone RMP1–14 or isotype control antibody 2A3, Bio-X-Cell, NH, USA), mice were inoculated with 1 × 10^5 4T1.2 cells into the mammary fatpad. One week later, mice with similar sized tumors (mean tumor volume 56 mm^3) were randomised into four groups (n = 6 mice per group): saline + isotype antibody, pixatimod + isotype antibody, saline + anti-PD-1 antibody and pixatimod + anti-PD-1 antibody. Pixatimod was administered at 15 mg/kg IP weekly for 3 weeks (days 1, 8 and 15) and anti-PD-1 or isotype antibody (200 μg) were given IP on days 1, 4, 8, 11 and 15. […]
In the 4T1.2 model, the percentage tumor growth inhibition was determined according to the following formula: 100 × (1-ΔT/ ΔC) where ΔC and ΔT were calculated by subtracting the mean tumor volume in each group on day 1 of treatment from the mean tumor volume on the day of analysis. […] The frequency of clinical observations, and necropsy and histopathology findings, was calculated as applicable. […]

[2] = Plasma exposure in the Phase Ia monotherapy study (PG545102), IV infusion; assay type: in vivo; conditions: human
Description: as §1, §2

[3] = design: method as in PMID 25754234; conditions: Mouse, 15 mg/kg IV (HED 73 mg); cited from earlier work
[4] = High Dose (20 mg/kg), 6 animals examined
[5] = Low Dose (2.5 mg/kg), 6 animals examined
[6] = Mid Dose (7.5 mg/kg), 6 animals examined

CC(C)CCC[C@@H](C)[C@H]1CC[C@H]2[C@@H]3CC[C@H]4C[C@@H](O[C@@H]5O[C@H](COS(=O)(=O)O)[C@@H](O[C@H]6O[C@H](COS(=O)(=O)O)[C@@H](O[C@H]7O[C@H](COS(=O)(=O)O)[C@@H](O[C@H]8O[C@H](COS(=O)(=O)O)[C@@H](OS(=O)(=O)O)[C@H](OS(=O)(=O)O)[C@H]8OS(=O)(=O)O)[C@H](OS(=O)(=O)O)[C@H]7OS(=O)(=O)O)[C@H](OS(=O)(=O)O)[C@H]6OS(=O)(=O)O)[C@H](OS(=O)(=O)O)[C@H]5OS(=O)(=O)O)CC[C@]4(C)[C@H]3CC[C@]12C [pixatimod]
mortality (beagle dogs; 2.5, 7.5 and 20 mg/kg weekly IV over 29 days): no mortality | Kidney: Cell infiltrate, mixed, perivascular, animals affected (beagle dogs; [4]): 6 | Kidney: Cell infiltrate, mixed, perivascular, mild (beagle dogs; [4]): 4 | Kidney: Cell infiltrate, mixed, perivascular, minimal (beagle dogs; [4]): 1 | Kidney: Cell infiltrate, mixed, perivascular, moderate (beagle dogs; [4]): 1 | Kidney: Dilatation tubular, animals affected (beagle dogs; [4]): 6 | Kidney: Dilatation tubular, by grade (minimal or mild, not resolvable) (beagle dogs; [4]): 6 | Kidney: Sclerosis glomerular, animals affected (beagle dogs; [4]): 3 | Kidney: Sclerosis glomerular, mild (beagle dogs; [4]): 1 | Kidney: Sclerosis glomerular, minimal (beagle dogs; [4]): 2 | Kidney: Vacuolation glomerular, animals affected (beagle dogs; [4]): 4 | Kidney: Vacuolation glomerular, mild (beagle dogs; [4]): 4 | Liver: Cell infiltrate, mixed, diffuse, animals affected (beagle dogs; [4]): 2 | Liver: Cell infiltrate, mixed, diffuse, mild (beagle dogs; [4]): 2 | Liver: Cell infiltrate, mononuclear, multifocal, animals affected (beagle dogs; [4]): 0 | Liver: Hypertrophy hepatocellular, animals affected (beagle dogs; [4]): 6 | Liver: Hypertrophy hepatocellular, mild (beagle dogs; [4]): 5 | Liver: Hypertrophy hepatocellular, minimal (beagle dogs; [4]): 1 | Liver: Hypertrophy, Kupffer cells, animals affected (beagle dogs; [4]): 6 | Liver: Hypertrophy, Kupffer cells, mild (beagle dogs; [4]): 4 | Liver: Hypertrophy, Kupffer cells, minimal (beagle dogs; [4]): 2 | Spleen: Cell infiltrate, mixed cellular, diffuse (minimal), animals affected (beagle dogs; [4]): 4 | Thymus: Lymphoid atrophy, animals affected (beagle dogs; [4]): 2 | Thymus: Lymphoid atrophy, mild (beagle dogs; [4]): 1 | Thymus: Lymphoid atrophy, minimal (beagle dogs; [4]): 1 | Kidney: Cell infiltrate, mixed, perivascular, animals affected (beagle dogs; [5]): 1 | Kidney: Cell infiltrate, mixed, perivascular, minimal (beagle dogs; [5]): 1 | Kidney: Dilatation tubular, animals affected (beagle dogs; [5]): 4 | Kidney: Dilatation tubular, minimal (beagle dogs; [5]): 4 | Kidney: Sclerosis glomerular, animals affected (beagle dogs; [5]): 0 | Kidney: Vacuolation glomerular, animals affected (beagle dogs; [5]): 0 | Liver: Cell infiltrate, mixed, diffuse, animals affected (beagle dogs; [5]): 0 | Liver: Cell infiltrate, mononuclear, multifocal, animals affected (beagle dogs; [5]): 0 | Liver: Hypertrophy hepatocellular, animals affected (beagle dogs; [5]): 5 | Liver: Hypertrophy hepatocellular, mild (beagle dogs; [5]): 3 | Liver: Hypertrophy hepatocellular, minimal (beagle dogs; [5]): 2 | Liver: Hypertrophy, Kupffer cells, animals affected (beagle dogs; [5]): 2 | Liver: Hypertrophy, Kupffer cells, mild (beagle dogs; [5]): 1 | Liver: Hypertrophy, Kupffer cells, minimal (beagle dogs; [5]): 1 | Spleen: Cell infiltrate, mixed cellular, diffuse (minimal), animals affected (beagle dogs; [5]): 0 | Kidney: Cell infiltrate, mixed, perivascular, animals affected (beagle dogs; [6]): 5 | Kidney: Cell infiltrate, mixed, perivascular, mild (beagle dogs; [6]): 1 | Kidney: Cell infiltrate, mixed, perivascular, minimal (beagle dogs; [6]): 4 | Kidney: Dilatation tubular, animals affected (beagle dogs; [6]): 6 | Kidney: Dilatation tubular, mild (beagle dogs; [6]): 1 | Kidney: Dilatation tubular, minimal (beagle dogs; [6]): 5 | Kidney: Sclerosis glomerular, animals affected (beagle dogs; [6]): 0 | Kidney: Vacuolation glomerular, animals affected (beagle dogs; [6]): 0 | Liver: Cell infiltrate, mixed, diffuse, animals affected (beagle dogs; [6]): 0 | Liver: Cell infiltrate, mononuclear, multifocal, animals affected (beagle dogs; [6]): 0 | Liver: Hypertrophy hepatocellular, animals affected (beagle dogs; [6]): 6 | Liver: Hypertrophy hepatocellular, mild (beagle dogs; [6]): 5 | Liver: Hypertrophy hepatocellular, minimal (beagle dogs; [6]): 1 | Liver: Hypertrophy, Kupffer cells, animals affected (beagle dogs; [6]): 6 | Liver: Hypertrophy, Kupffer cells, mild (beagle dogs; [6]): 2 | Liver: Hypertrophy, Kupffer cells, minimal (beagle dogs; [6]): 4 | Spleen: Cell infiltrate, mixed cellular, diffuse (minimal), animals affected (beagle dogs; [6]): 2 | AST (beagle dogs; after 5 weekly IV doses): significant changes | large unstained cells (LUCs) (beagle dogs; blood, following exposure): significant increases | bone marrow smears (beagle dogs; femur and sternum at necropsy): No treatment-related changes | body temperature (beagle dogs; following the first dose, dissipated upon repeat dosing by day 30): significant elevations | absolute WBC counts and main subsets (lymphocytes, neutrophils and monocytes) (beagle dogs; weekly IV dosing): remained within normal ranges | relative weight of kidneys (beagle dogs; weekly IV x5): significantly increased | relative weight of liver (beagle dogs; weekly IV x5): significantly increased | spleen weight (beagle dogs; weekly IV x5): no effect | thymus weights (beagle dogs; weekly IV x5): modest but dose-dependent decreases | AUC(0-t) ([1]; 2.5 mg/kg, 2.5 mg/kg weekly IV (HED 83 mg), read-out: AUC0-last Week 1): 697 µg·h/mL | AUC(0-t) ([1]; 2.5 mg/kg, 2.5 mg/kg weekly IV (HED 83 mg), read-out: AUC0-last Week 4): 1370 µg·h/mL | AUC(0-t) ([1]; 7.5 mg/kg, 7.5 mg/kg weekly IV (HED 250 mg), read-out: AUC0-last Week 1): 1810 µg·h/mL | AUC(0-t) ([1]; 7.5 mg/kg, 7.5 mg/kg weekly IV (HED 250 mg), read-out: AUC0-last Week 4): 4940 µg·h/mL | AUC(0-t) ([1]; 20 mg/kg, 20 mg/kg weekly IV (HED 666 mg), read-out: AUC0-last Week 1): 6880 µg·h/mL | AUC(0-t) ([1]; 20 mg/kg, 20 mg/kg weekly IV (HED 666 mg), read-out: AUC0-last Week 4): 10500 µg·h/mL | Tumor growth compared to the vehicle plus isotype antibody (Control) group (4T1.2 cells): significantly inhibited | tumor growth inhibition (%TGI) (4T1.2 cells; pixatimod 15 mg/kg IP weekly x3, antibody 200 μg IP twice weekly): 68% | AUC(0-t) ([2]; 25 mg, 25 mg weekly IV, read-out: AUC0-last Week 1): 465 µg·h/mL | AUC(0-t) ([2]; 25 mg, 25 mg weekly IV, read-out: AUC0-last Week 4): 610 µg·h/mL | AUC(0-t) ([2]; 50 mg, 50 mg weekly IV, read-out: AUC0-last Week 1): 709 µg·h/mL | AUC(0-t) ([2]; 50 mg, 50 mg weekly IV, read-out: AUC0-last Week 4): 1690 µg·h/mL | AUC(0-t) ([2]; 100 mg, 100 mg weekly IV, read-out: AUC0-last Week 1): 1210 µg·h/mL | AUC(0-t) ([2]; 100 mg, 100 mg weekly IV, read-out: AUC0-last Week 4): 2380 µg·h/mL | AUC(0-t) ([2]; 150 mg, 150 mg weekly IV, read-out: AUC0-last Week 1): 1440 µg·h/mL | AUC(0-t) ([2]; 150 mg, 150 mg weekly IV, read-out: AUC0-last Week 4): 2780 µg·h/mL | AUC0-last Week 1 [3]: 1358 ^c μg.h/mL
